# Test results from patent publication US12653860B2, “Compositions and methods for editing beta-globin for treatment of hemaglobinopathies” (Vertex Pharmaceuticals Incorporated, priority 2019, dated 2026).
# How the values were obtained:
# [1] = tested on: BFP gene encoded in the AAVS1 locus of HEK293 T cells; test: BFP to GFP reporter assay of HDR repair (flow cytometry); type: cell-based; conditions: for HDR efficiency (improvement): 1.25 μM SCR7 or 10 μM RS-1, any ssODN construct, relative to DMSO alone
# Experimental: An in vitro assay was conducted to determine the ability of various inhibitors and enhancers to improve the efficiency of HDR repair in HEK293 T cells. Specifically, a fluorescent reporter-based screening approach was developed to identify molecules that enhance gene-editing by HDR. A reporter system was generated in HEK293 T cells comprising a genomic AAVS1 locus that encoded either a blue fluorescent protein (BFP) or a green fluorescent protein (GFP) within the AAVS1 locus. A gene encoding BFP can be converted to a gene encoding GFP by substitution of cytosine at position 199 to uridine (e.g., a C to U transition at position 199). By introducing a DSB within the BFP gene using a CRISPR/Cas9 gene-editing system, a homology donor DNA encoding the nucleotide substitution can be used to edit the BFP gene to a GFP gene by HDR repair. Thus, a gene edit that induces a C to U transition at position 199 results in a change in cellular fluorescence. A change in the fluorescence of the cell measured by flow cytometry can be used to quantify efficiency of HDR repair. Additionally, the reverse gene edit can be performed for an AAVS1 locus encoding a GFP gene, wherein a GFP can be converted to BFP by substitution of uridine at position 199 to cytosine.
# To create the reporter system, an AAV-based homology donor DNA encoding either BFP or GFP was created. The AAV-BFP or AAV-GFP donor was flanked by homology arms that were 1000 base pairs in length and expression of BFP or GFP was driven by the MND promoter (e.g., a synthetic promoter that contains the U3 region of a modified Moloney murine leukemia virus long term terminal repeat with myeloproliferative sarcoma virus enhancer and deleted negative control region, SEQ ID NO: 58). The viral DNA was packaged into capsids of adeno-associated virus serotype 6 (AAV6) vector. Either the BFP or GFP donor was introduced using the AAV6 vector into the AAVS1 locus in HEK293 T cells by homologous recombination using CRISPR-Cas9 as follows: purified Cas9 protein was complexed with two different single gRNAs (sgRNAs) targeting the AAVS1 locus at SEQ ID NO: 3 (spacer sequence identified by SEQ ID NO: 4; gRNA obtained from Maxcyte) or SEQ ID NO: 5 (spacer sequence identified by SEQ ID NO: 6; gRNA obtained from Thermo Fisher). Cas9 protein used in the Exemplary section provided herein refers to Cas9 polypeptide derived from S pyogenes (SpCas9), unless indicated otherwise.
# The Cas9-sgRNA complex was electroporated into the HEK293 T cells using the Lonza Nucleofector program CM-130. Approximately, 2 hours after electroporation, the cells were infected with various viral doses of AAV6 encoding a BFP (SEQ ID NO: 44) or GFP homology donor (SEQ ID NO: 47). One week later, cells were analyzed by flow cytometry to verify integration and expression of BFP or GFP in the AAVS1 locus. HEK293 T cells expressing BFP or GFP were sorted into single cells in 96-well plates. After −2 weeks of growth, DNA extracted from individual cells was analyzed for precise integration of the respective BFP or GFP gene into the AAVS1 locus by long-range PCR. This PCR analysis allowed for determination of whether the BFP/GFP gene was integrated in one or both alleles of the AAVS1 locus.
# To introduce a gene edit that converts BFP to GFP, cells were electroporated with ribonucleoprotein (RNP) comprised of Cas9 and sgRNA that targets the BFP gene encoded in the AAVS1 locus. The sgRNA targeted a sequence in the BFP gene identified by SEQ ID NO: 7 (sgRNA spacer sequence identified by SEQ ID NO: 8). The sgRNA were prepared using a standard sgRNA cassette specific to SpCas9, as indicated by SEQ ID NO: 2 (wherein a, c, g, u represent 2′ O-methyl phosphorothioate nucleotides; s represents phosphorothioate nucleotides; and A, C, G, U, N represent canonical RNA nucleotides). The gRNAs used in the Exemplary section provided herein were sgRNAs prepared with the SpCas9 sgRNA cassette unless indicated otherwise. […]
# [2] = tested on: GSD1a locus in HEK293 T cells; test: HDR editing of GSD1a locus with ssODN homology donors; type: cell-based; conditions: FIG. 3; for HDR efficiency: 1.25 μM SCR7 or 10 μM RS-1
# Experimental: 2×10^5 cells were edited with 1 μM Cas9 and 1.5 μM gRNA. The cells were transfected with two different ssODNs homology donors: 93-50 (SEQ ID NO: 39) or 25-100 (SEQ ID NO: 40). These two ssODN donors contain homology arms spanning both sides of the double-stranded break induced by the Cas9-guide and facilitate correction of a point mutation in the G6PC gene sequence by HDR. Cells were edited with 100 μM ssODN. The cells were treated with 2.5 μM Nu7441, 1.25 μM SCR7, or 10 μM RS-1 and the effect on HDR efficiency was evaluated.
# [3] = tested on: HBB locus in CD34-expressing LT-HSPCs; test: HDR incorporation of sickle (E7V) edit at HBB locus in vitro, NGS assay; type: cell-based, human; conditions: for incorporation of the E7V gene edit: 1 μg mRNA encoding i53
# Text: The cells were electroporated with 1 g mRNA encoding i53.
# [4] = tested on: HBB locus; test: HDR (E7V) editing in mouse bone marrow 16 weeks post-administration, NGS; type: in vivo, mice; conditions: for levels of gene-editing in the HBB locus in bone marrow: AAV.304, FIG. 26B
# Experimental: Maintenance of gene-editing was evaluated in mouse bone marrow collected at 16 weeks post-administration of LT-HSPCs. Incorporation of a sickle mutation (E7V) in the HBB locus was evaluated in DNA isolated from mouse bone marrow samples using the next generation sequencing assay described in Example 4. Shown in FIG. 19 is a comparison of HDR efficiency for LT-HSPCs edited either with or without i53. LT-HSPCs were electroporated with Cas9/gRNA and treated with AAV. […] LT-HSPCs edited in the presence of i53 had 1.8-fold higher HDR frequency in the bone marrow compared to cells edited with AAV+RNP alone.
# Maintenance of gene-editing was evaluated in mouse bone marrow collected at 16 weeks post-administration of LT-HSPCs. Incorporation of a sickle mutation (E7V) in the HBB locus was evaluated in DNA isolated from mouse bone marrow samples using the next generation sequencing assay described in Example 4. […] LT-HSPCs were electroporated with Cas9/gRNA and treated with AAV prior to electroporation or following electroporation. Incorporation of the gene-edit in bone marrow samples was similar for LT-HSPCs edited with RNP and AAV given either pre-EP or post-EP. Additionally, incorporation of the gene edit in the HBB locus by HDR was compared for LT-HSPCs edited in the presence of i53 or Nu7441 (FIG. 26B).
molecule,measurement,setting,value
O=c1cc(N2CCOCC2)oc2c(-c3cccc4c3sc3ccccc34)cccc12 [Nu7441],"HDR efficiency, fold higher","[1]; 2.5 μM Nu7441, each of four ssODN constructs, FIG. 1A",approximately 3 fold
same,"HDR efficiency, high vs low concentration","[1]; 2.5 μM vs 0.6 μM Nu7441, FIG. 1B, 1C",approximately 1.5 fold
same,HDR efficiency at higher concentrations,[1]; concentrations of Nu7441 higher than 2.5 μM,no further improvement in HDR efficiency
same,"HDR efficiency, fold increase over DMSO alone","[2]; 2.5 μM Nu7441, ssODN 93-50 or 25-100",approximately 1.7 fold
same,HDR efficiency over RNP+AAV alone,"[3]; 5 μM Nu7441, pre-EP AAV.304, FIG. 22B",no improvement of HDR efficiency
same,levels of gene-editing in the HBB locus in bone marrow,[4],comparable to AAV+RNP alone
O=C(Nc1ccc(Br)cc1)c1ccc(Br)c(S(=O)(=O)NCc2ccccc2)c1 [RS-1],HDR efficiency (improvement),[1]; FIG. 1A,no improvement in HDR efficiency
same,HDR efficiency,[2],no effect
O=c1[nH]c(=S)[nH]c(N=Cc2ccccc2)c1N=Cc1ccccc1 [SCR7],HDR efficiency (improvement),[1]; FIG. 1A,no improvement in HDR efficiency
same,HDR efficiency,[2],no effect
"i53: polypeptide inhibitor of 53BP1 (SEQ ID NO: 70), delivered as mRNA (ORF SEQ ID NO: 69)",HDR efficiency,"[1]; different doses of mRNA encoding i53, ssODNs Hn-91-61 and Ht-39-88, FIG. 1D",HDR efficiency increased
same,incorporation of the E7V gene edit,"[3]; pre-EP AAV.304, FIG. 22B",58%
same,incorporation of the E7V gene edit,"[3]; AAV.307 + Cas9/R02 RNP, FIG. 10",68%
same,cells incorporating the sickle cell gene-edit,"[3]; LT-HSPCs mobilized by Mozobil alone, i53, FIG. 12B",approximately 70%
same,"HDR efficiency, fold increase over RNP+AAV alone","[3]; LT-HSPCs mobilized by Mozobil+GCSF, FIG. 12A",approximately 1.5 fold
same,incorporation of the sickle cell gene-edit by HDR,"[3]; LT-HSPCs mobilized by Mozobil+GCSF, i53, FIG. 12A",approximately 60%
same,levels of gene-editing in the HBB locus in bone marrow,[4],substantially higher than AAV+RNP alone
same,"HDR frequency in bone marrow, fold higher than AAV+RNP alone","[4]; AAV.307, FIG. 19",1.8 fold
same,incorporation of the gene edit by HDR in bone marrow,"[4]; AAV.307, i53, FIG. 19",65%
